Results from ChEMBL document CHEMBL1129922, “Preparation and antibacterial activity of pyridopyridone analogs: C-1 modifications” (1997).
≈ marks a conversion by molar mass, not a printed value.

How the values were obtained:
Format in all cases: functional
Enterococcus faecium = test: In vitro antibacterial activity against Enterococcus faecium ATCC 8043 organism, activity expressed as minimum inhibitory concentration (MIC)
Escherichia coli = test: In vitro antibacterial activity against Escherichia coli juhl organism, activity expressed as minimum inhibitory concentration (MIC)
Pseudomonas aeruginosa = test: In vitro antibacterial activity against Pseudomonas aeruginosa K799/WT organism, activity expressed as minimum inhibitory concentration (MIC)
Staphylococcus aureus [1] = test: In vitro antibacterial activity against Staphylococcus aureus 1775 organism expressed as minimum inhibitory concentration (MIC)
Streptococcus pyogenes = test: In vitro antibacterial activity against Streptococcus pyogenes 930 organism, activity expressed as minimum inhibitory concentration (MIC)
Staphylococcus aureus [2] = test: In vitro antibacterial activity against Staphylococcus aureus NCTC 10649M organism expressed as minimum inhibitory concentration (MIC)

C=Cc1cc(C(=O)O)c(=O)n2cc(F)c(N3CC[C@H](N)C3)c(C)c12
MIC (Enterococcus faecium): 1.56 µg/mL (≈ 4.71 µM)
MIC (Escherichia coli): 0.2 µg/mL (≈ 0.604 µM)
MIC (Pseudomonas aeruginosa): 0.78 µg/mL (≈ 2.35 µM)
MIC (Staphylococcus aureus [1]): > 100 µg/mL
MIC (Streptococcus pyogenes): 1.56 µg/mL (≈ 4.71 µM)
MIC (Staphylococcus aureus [2]): 0.78 µg/mL (≈ 2.35 µM)

Cc1c(N2CC[C@H](N)C2)c(F)cn2c(=O)c(C(=O)O)cc(CC(C)(C)C)c12
MIC (Enterococcus faecium): 6.2 µg/mL (≈ 16.5 µM)
MIC (Pseudomonas aeruginosa): 12.5 µg/mL (≈ 33.3 µM)
MIC (Staphylococcus aureus [1]): 50 µg/mL (≈ 133 µM)
MIC (Streptococcus pyogenes): 3.1 µg/mL (≈ 8.26 µM)
MIC (Staphylococcus aureus [2]): 1.56 µg/mL (≈ 4.16 µM)

Cc1c(N2CC[C@H](N)C2)c(F)cn2c(=O)c(C(=O)O)cc(CC3CC3)c12
MIC (Enterococcus faecium): 6.2 µg/mL (≈ 17.3 µM)
MIC (Escherichia coli): 0.78 µg/mL (≈ 2.17 µM)
MIC (Pseudomonas aeruginosa): 12.5 µg/mL (≈ 34.8 µM)
MIC (Staphylococcus aureus [1]): 25 µg/mL (≈ 69.6 µM)
MIC (Streptococcus pyogenes): 6.2 µg/mL (≈ 17.3 µM)
MIC (Staphylococcus aureus [2]): 1.56 µg/mL (≈ 4.34 µM)

Cc1cc(C(=O)O)c(=O)n2cc(F)c(N3CC[C@H](N)C3)c(C)c12
MIC (Enterococcus faecium): 0.39 µg/mL (≈ 1.22 µM)
MIC (Escherichia coli): 0.05 µg/mL (≈ 0.157 µM)
MIC (Pseudomonas aeruginosa): 3.1 µg/mL (≈ 9.71 µM)
MIC (Staphylococcus aureus [1]): 12.5 µg/mL (≈ 39.1 µM)
MIC (Streptococcus pyogenes): 0.39 µg/mL (≈ 1.22 µM)
MIC (Staphylococcus aureus [2]): 0.1 µg/mL (≈ 0.313 µM)

Cc1c(N2CC[C@H](N)C2)c(F)cn2c(=O)c(C(=O)O)cc(C3CCC3)c12
MIC (Enterococcus faecium): 0.39 µg/mL (≈ 1.09 µM)
MIC (Escherichia coli): 0.05 µg/mL (≈ 0.139 µM)
MIC (Pseudomonas aeruginosa): 3.1 µg/mL (≈ 8.63 µM)
MIC (Staphylococcus aureus [1]): 12.5 µg/mL (≈ 34.8 µM)
MIC (Streptococcus pyogenes): 0.39 µg/mL (≈ 1.09 µM)
MIC (Staphylococcus aureus [2]): 0.1 µg/mL (≈ 0.278 µM)

COCCc1cc(C(=O)O)c(=O)n2cc(F)c(N3CC[C@H](N)C3)c(C)c12
MIC (Enterococcus faecium): > 100 µg/mL
MIC (Escherichia coli): 12.5 µg/mL (≈ 34.4 µM)
MIC (Pseudomonas aeruginosa): 100 µg/mL (≈ 275 µM)
MIC (Staphylococcus aureus [1]): > 100 µg/mL
MIC (Staphylococcus aureus [2]): 50 µg/mL (≈ 138 µM)

CCC(C)c1cc(C(=O)O)c(=O)n2cc(F)c(N3CC[C@H](N)C3)c(C)c12 (stereo not given in full)
MIC (Enterococcus faecium): 12.5 µg/mL (≈ 34.6 µM)
MIC (Escherichia coli): 1.56 µg/mL (≈ 4.32 µM)
MIC (Pseudomonas aeruginosa): 50 µg/mL (≈ 138 µM)
MIC (Staphylococcus aureus [1]): > 100 µg/mL
MIC (Streptococcus pyogenes): 50 µg/mL (≈ 138 µM)
MIC (Staphylococcus aureus [2]): 6.2 µg/mL (≈ 17.2 µM)

Cc1c(N2CC[C@H](N)C2)c(F)cn2c(=O)c(C(=O)O)cc(C3CCCC3)c12
MIC (Enterococcus faecium): 12.5 µg/mL (≈ 33.5 µM)
MIC (Escherichia coli): 0.78 µg/mL (≈ 2.09 µM)
MIC (Pseudomonas aeruginosa): 25 µg/mL (≈ 66.9 µM)
MIC (Staphylococcus aureus [1]): 50 µg/mL (≈ 134 µM)
MIC (Streptococcus pyogenes): 12.5 µg/mL (≈ 33.5 µM)
MIC (Staphylococcus aureus [2]): 3.1 µg/mL (≈ 8.3 µM)

C=CCc1cc(C(=O)O)c(=O)n2cc(F)c(N3CC[C@H](N)C3)c(C)c12
MIC (Enterococcus faecium): 1.56 µg/mL (≈ 4.52 µM)
MIC (Escherichia coli): 1.56 µg/mL (≈ 4.52 µM)
MIC (Pseudomonas aeruginosa): 3.1 µg/mL (≈ 8.98 µM)
MIC (Staphylococcus aureus [1]): > 100 µg/mL
MIC (Streptococcus pyogenes): 1.56 µg/mL (≈ 4.52 µM)
MIC (Staphylococcus aureus [2]): 0.78 µg/mL (≈ 2.26 µM)

Cc1c(N2CC[C@H](N)C2)c(F)cn2c(=O)c(C(=O)O)cc(C(C)C)c12
MIC (Enterococcus faecium): 0.2 µg/mL (≈ 0.576 µM)
MIC (Escherichia coli): 0.39 µg/mL (≈ 1.12 µM)
MIC (Pseudomonas aeruginosa): 1.56 µg/mL (≈ 4.49 µM)
MIC (Staphylococcus aureus [1]): 6.2 µg/mL (≈ 17.8 µM)
MIC (Streptococcus pyogenes): 0.2 µg/mL (≈ 0.576 µM)
MIC (Staphylococcus aureus [2]): 0.1 µg/mL (≈ 0.288 µM)

Cc1c(N2CC[C@H](N)C2)c(F)cn2c(=O)c(C(=O)O)ccc12
MIC (Enterococcus faecium): 25 µg/mL (≈ 81.9 µM)
MIC (Escherichia coli): 0.39 µg/mL (≈ 1.28 µM)
MIC (Pseudomonas aeruginosa): 6.2 µg/mL (≈ 20.3 µM)
MIC (Staphylococcus aureus [1]): > 100 µg/mL
MIC (Streptococcus pyogenes): 12.5 µg/mL (≈ 40.9 µM)
MIC (Staphylococcus aureus [2]): 3.1 µg/mL (≈ 10.2 µM)

Cc1c(N2CC[C@H](N)C2)c(F)cn2c(=O)c(C(=O)O)cc(C3CC3)c12 [ABT-719]
MIC (Enterococcus faecium): 0.02 µg/mL (≈ 0.0579 µM)
MIC (Escherichia coli): 0.01 µg/mL (≈ 0.029 µM)
MIC (Pseudomonas aeruginosa): 0.05 µg/mL (≈ 0.145 µM)
MIC (Staphylococcus aureus [1]): 0.78 µg/mL (≈ 2.26 µM)
MIC (Streptococcus pyogenes): 0.02 µg/mL (≈ 0.0579 µM)
MIC (Staphylococcus aureus [2]): 0.01 µg/mL (≈ 0.029 µM)
